From patent US7589097B2, “Triazol[4,5-d] pyramidine derivatives and their use as purinergic receptor antagonists” (Vernalis Research Limited, priority 2001, dated 2009)

Legend:
[1] = molecular target: human adenosine A2A receptors (Homo sapiens, UniProt P29274); assay: Binding affinities at hA2A receptors, displacement of [3H]-CGS 21680
Excerpt: Adenosine Receptor Binding Binding Affinities at hA2A Receptors

Sequence of human adenosine A2A receptors (P29274 whole entry): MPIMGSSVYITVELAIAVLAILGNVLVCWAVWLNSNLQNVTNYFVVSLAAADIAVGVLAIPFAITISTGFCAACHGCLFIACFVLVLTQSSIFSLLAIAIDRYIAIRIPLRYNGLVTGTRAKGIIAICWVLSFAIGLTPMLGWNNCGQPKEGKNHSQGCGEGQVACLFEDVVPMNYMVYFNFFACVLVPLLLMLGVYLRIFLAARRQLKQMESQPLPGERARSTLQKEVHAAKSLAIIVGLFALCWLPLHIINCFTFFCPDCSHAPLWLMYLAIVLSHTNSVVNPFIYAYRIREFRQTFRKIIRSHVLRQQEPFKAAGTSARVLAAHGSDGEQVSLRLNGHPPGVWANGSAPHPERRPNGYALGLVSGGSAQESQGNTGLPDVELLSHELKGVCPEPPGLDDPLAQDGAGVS

Row | SMILES | Ki [1] | melting point
1 | Nc1nc(-c2ccco2)c2nnn(Cc3cc([N+](=O)[O-])ccc3F)c2n1 [Example 78, 3-(2-fluoro-5-nitrobenzyl)-7-(2-furyl)-3H-[1,2,3]triazolo[4,5-d]pyrimidine-5-amine] | 3 nM | 
2 | Nc1nc(-c2ccco2)c2nnn(Cc3ccccc3F)c2n1 [Example 3, 3-(2-Fluorobenzyl)-7-(2-furyl)-3H-[1,2,3]triazolo[4,5-d]pyrimidine-5-amine] | 3 nM | 
3 | Nc1nc(-c2ccco2)c2nnn(Cc3cc(I)ccc3F)c2n1 [Example 169, 3-(2-fluoro-5-iodobenzyl)-7-(2-furyl)-3H-[1,2,3]triazolo[4,5-d]pyrimidine-5-amine] | 2 nM | 
4 | Nc1nc(-c2ccco2)c2nnn(Cc3ccc(O)cc3)c2n1 [Example 221, 3-(4-Hydroxybenzyl)-7-(2-furyl)-3H-[1,2,3]triazolo[4,5-d]pyrimidine-5-amine] | 2 nM | 
5 | Nc1cccc(Cn2nnc3c(-c4ccco4)nc(N)nc32)c1 [Example 5, 3-(3-Aminobenzyl)-7-(2-furyl)-3H-[1,2,3]triazolo[4,5-d]pyrimidine-5-amine] | 3 nM | 259.8 to 259.9 °C
6 | Nc1nc(-c2ccco2)c2nnn(Cc3ccccc3[N+](=O)[O-])c2n1 [Example 12, 7-(2-furyl)-3-(2-nitrobenzyl)-3H-[1,2,3]triazolo[4,5-d]pyrimidine-5-amine] | 7 nM | 
7 | Nc1nc(-c2ccco2)c2nnn(Cc3c(F)cccc3F)c2n1 [Example 41, 3-(2,6-difluorobenzyl)-7-(2-furyl)-3H-[1,2,3]triazolo[4,5-d]pyrimidine-5-amine] | 2 nM | 213.8 to 213.9 °C
8 | Nc1nc(-c2ccco2)c2nnn(Cc3ccc4ccccc4n3)c2n1 [Example 188, 7-(2-furyl)-3-(quinolin-2-ylmethyl)-3H-[1,2,3]triazolo[4,5-d]pyrimidine-5-amine] | 1 nM | 228.9 to 229.9 °C
9 | COc1cc(F)c(Cn2nnc3c(-c4ccco4)nc(N)nc32)c(F)c1 [Example 156, 3-(2,6-Difluoro-4-methoxybenzyl)-7-(2-furyl)-3H-[1,2,3]triazolol[4,5-d]pyrimidine-5-amine] | 2 nM | 274.2 to 274.3 °C
10 | Nc1nc(-c2ccco2)c2nnn(Cc3cccc([N+](=O)[O-])c3)c2n1 [Example 4, 7-(2-furyl)-3-(3-nitrobenzyl)-3H-[1,2,3]triazolo[4,5-d]pyrimidine-5-amine] | 4 nM | 
11 | Nc1nc(-c2ccco2)c2nnn(Cc3ccccc3N)c2n1 [Example 13, 3-(2-aminobenzyl)-7-(2-furyl)-3H-[1,2,3]triazolo[4,5-d]pyrimidine-5-amine] | 2 nM | 
12 | COc1cccc(Cn2nnc3c(-c4ccco4)nc(N)nc32)c1 [Example 11, 7-(2-furyl)-3-(3-methoxybenzyl)-3H-[1,2,3]triazolo[4,5-d]pyrimidine-5-amine] | 2 nM | 
13 | Nc1nc(-c2ccco2)c2nnn(Cc3c(F)cc(O)cc3F)c2n1 [Example 149, 3-(2,6-difluoro-4-hydroxybenzyl)-7-(2-furyl)-3H-[1,2,3]triazolo[4,5-d]pyrimidine-5-amine] | 1 nM | 
14 | N#Cc1cccc(Cn2nnc3c(-c4ccco4)nc(N)nc32)c1 [Example 15, 3-(3-cyanobenzyl)-7-(2-furyl)-3H-[1,2,3]triazolo[4,5-d]pyrimidine-5-amine] | 4 nM | 
15 | Cc1ccc(-c2nc(N)nc3c2nnn3Cc2cccc(Cl)c2)o1 [Example 62, 3-(3-chlorobenzyl)-7-(5-methyl-2-furyl)-3H-[1,2,3]triazolo[4,5-d]pyrimidine-5-amine] |  | 210.4 to 210.5 °C
16 | CC(C)(C)OC(=O)n1ccc2ccc(Cn3nnc4c(-c5ccco5)nc(N)nc43)cc21 [Example 146, tert-butyl 6-(5-amino-7-(2-furyl)-3H-[1,2,3]triazolo[4,5-d]pyrimidine-3-ylmethyl)indole-1-carboxylate] |  | 180 to 180.5 °C
17 | Cc1ccc([N+](=O)[O-])c(Cn2nnc3c(-c4ccco4)nc(N)nc32)c1 [Example 96, 7-(2-furyl)-3-(5-methyl-2-nitrobenzyl)-3H-[1,2,3]triazolo[4,5-d]pyrimidine-5-amine] |  | 226.6 to 226.9 °C
18 | Cc1ccc(-c2nc(N)nc3c2nnn3Cc2cccc(N)c2)o1 [Example 36, 3-(3-aminobenzyl)-7-(5-methyl-2-furyl)-3H-[1,2,3]triazolo[4,5-d]pyrimidine-5-amine] |  | 231.7 to 234 °C
19 | Nc1nc(-c2ccccc2)c2nnn(Cc3cccc([N+](=O)[O-])c3)c2n1 [Example 130, 3-(3-nitrobenzyl)-7-phenyl-3H-[1,2,3]triazolo[4,5-d]pyrimidine-5-amine] |  | 149 to 149.6 °C
20 | Nc1nc(-c2ccco2)c2nnn(Cc3ccc(Cl)s3)c2n1 [Example 8, 3-(5-chloro-2-thienyl)methyl-7-(2-furyl)-3H-[1,2,3]triazolo[4,5-d]pyrimidine-5-amine] | 3 nM | 
21 | CC(=O)NCc1cccc(Cn2nnc3c(-c4ccco4)nc(N)nc32)n1 [Example 177, 3-(6-Acetamidomethyl-2-pyridylmethyl)-7-(2-furyl)-3H-[1,2,3]triazolo[4,5-d]pyrimidine-5-amine] |  | 245.9 to 247 °C

Row | SMILES | Ki [1] | melting point
22 | COCc1cccc(Cn2nnc3c(-c4ccc(C)o4)nc(N)nc32)n1 [Example 183, 3-(6-methoxymethyl-2-pyridylmethyl)-7-(5-methyl-2-furyl)-3H-[1,2,3]triazolo[4,5-d]pyrimidine-5-amine] |  | 152 to 153.5 °C
23 | Nc1nc(-c2ccco2)c2nnn(Cc3cc([N+](=O)[O-])cc([N+](=O)[O-])c3)c2n1 |  | 264.5 to 264.8 °C
24 | CCOc1cccc(Cn2nnc3c(-c4ccc(C)o4)nc(N)nc32)n1 [Example 254, 3-(6-ethoxy-2-pyridylmethyl)-7-(5-methyl-2-furyl)-3H-[1,2,3]triazolo[4,5-d]pyrimidine-5-amine] |  | 190.8 to 190.9 °C
25 | CC(c1cccc(F)c1)n1nnc2c(-c3ccco3)nc(N)nc21 (stereo not drawn) [Example 260, 3-(1-(3-fluorophenyl)ethyl)-7-(2-furyl)-3H-[1,2,3]triazolo[4,5-d]pyrimidine-5-amine] |  | 150.3 to 151 °C
26 | N#CCc1cccc(Cn2nnc3c(-c4ccco4)nc(N)nc32)n1 [Example 220, 3-(6-Cyanomethyl-2-pyridylmethyl)-7-(2-furyl)-3H-[1,2,3]triazolo[4,5-d]pyrimidine-5-amine] |  | 223.3 to 223.4 °C
27 | Cc1cc(Cn2nnc3c(-c4ccco4)nc(N)nc32)ccc1[N+](=O)[O-] [Example 94, 7-(2-furyl)-3-(3-methyl-4-nitrobenzyl)-3H-[1,2,3]triazolo[4,5-d]pyrimidine-5-amine] |  | 237.8 to 238 °C
28 | Cc1ccc(N)c(Cn2nnc3c(-c4ccco4)nc(N)nc32)c1 [Example 104, 3-(2-amino-5-methylbenzyl)-7-(2-furyl)-3H-[1,2,3]triazolo[4,5-d]pyrimidine-5-amine] |  | 249.9 to 250.5 °C
29 | Nc1nc(-c2ccco2)c2nnn(Cc3cccc4cc[nH]c34)c2n1 [Example 154, 7-(2-furyl)-3-(7-indolylmethyl)-3H-[1,2,3]triazolo[4,5-d]pyrimidine-5-amine] |  | 295.3 to 295.5 °C
30 | CC(C)c1cc(Cn2nnc3c(-c4ccco4)nc(N)nc32)ccc1[N+](=O)[O-] [Example 187, 7-(2-furyl)-3-(3-isopropyl-4-nitrobenzyl)-3H-[1,2,3]triazolo[4,5-d]pyrimidine-5-amine] |  | 191.7 to 191.9 °C
31 | CC(C)(C)OC(=O)Nc1ccc(Cn2nnc3c(-c4ccco4)nc(N)nc32)cc1F [Example 143, tert-butyl N-(4-(5-amino-7-(2-furyl)-3H-[1,2,3]triazolo[4,5-d]pyrimidine-3-ylmethyl)-2-fluorophenyl)carbamate] |  | 167 to 167.3 °C
32 | Cc1cccnc1Cn1nnc2c(-c3ccco3)nc(N)nc21 [Example 95, 7-(2-furyl)-3-(3-methyl-2-pyridylmethyl)-3H-[1,2,3]triazolo[4,5-d]pyrimidine-5-amine] |  | 249.8 to 250 °C
33 | CC(C)CC(=O)NCc1cccc(Cn2nnc3c(-c4ccco4)nc(N)nc32)c1 [Example 85, N-(3-(5-amino-7-(2-furyl)-3H-[1,2,3]triazolo[4,5-d]pyrimidin-3-ylmethyl)benzyl)-3-methylbutanamide] |  | 215.9 to 217.5 °C
34 | Nc1nc(-c2ccco2)c2nnn(Cc3ccc4nonc4c3)c2n1 [Example 111] |  | 244.1 to 244.6 °C
35 | Cc1cccc(Cn2nnc3c(-c4ccco4)nc(N)nc32)n1 [Example 37, 7-(2-furyl)-3-(6-methyl-2-pyridylmethyl)-3H-[1,2,3]triazolo[4,5-d]pyrimidine-5-amine] |  | 200.8 to 218.9 °C
36 | Cc1ccc(-c2nc(N)nc3c2nnn3Cc2ccc([N+](=O)[O-])c(C)c2)o1 [Example 123, 7-(5-methyl-2-furyl)-3-(3-methyl-4-nitrobenzyl)-3H-[1,2,3]triazolo[4,5-d]pyrimidine-5-amine] |  | 214.6 to 216.2 °C
37 | CCCc1cccc(Cn2nnc3c(-c4ccco4)nc(N)nc32)n1 [Example 216, 7-(2-furyl)-3-(6-n-propyl-2-pyridylmethyl)-3H-[1,2,3]triazolo[4,5-d]pyrimidine-5-amine] |  | 178.3 to 178.5 °C
38 | N#Cc1ccnc(Cn2nnc3c(-c4ccco4)nc(N)nc32)c1 [Example 105, 3-(4-cyano-2-pyridylmethyl)-7-(2-furyl)-3H-[1,2,3]triazolo[4,5-d]pyrimidine-5-amine] |  | 263.2 to 263.5 °C
39 | Cc1ccc(-c2nc(N)nc3c2nnn3Cc2cccs2)o1 [Example 61, 7-(5-methyl-2-furyl)-3-(2-thienylmethyl)-3H-[1,2,3]triazolo[4,5-d]pyrimidine-5-amine] |  | 193.8 to 194.1 °C
40 | Cc1cnccc1Cn1nnc2c(-c3ccco3)nc(N)nc21 [Example 126, 7-(2-furyl)-3-(3-methyl-4-pyridylmethyl)-3H-[1,2,3]triazolo[4,5-d]pyrimidine-5-amine] |  | 229.6 to 230.3 °C
41 | Nc1nc(-c2ccco2)c2nnn(Cc3ccc(F)c([N+](=O)[O-])c3)c2n1 [Example 129, 3-(4-fluoro-3-nitrobenzyl)-7-(2-furyl)-3H-[1,2,3]triazolo[4,5-d]pyrimidine-5-amine] |  | 266.5 to 266.7 °C
